Measured values from patent US20230192704A1, “MONOCARBOXYLIC ACID TRANSPORTER 4 (MCT4) MODULATORS AND USES THEREOF” (Teon Therapeutics, Inc., priority 2020, published 2023).

Tests used:
MCT4 = target: T1, MCT4 (Homo sapiens, UniProt O15427); assay: MCT4 transport assay (L-lactate influx, BCECF-AM intracellular pH); assay type: cell-based; details: MDA-MB-231 cells expressing exclusively MCT4
T1 construct: MDA-MB-231 cells—a triple negative human breast cancer cell line expressing exclusively MCT4 (confirmed by Western blotting); host or cells: MDA-MB-231
T1 sequence (O15427 2-465 limits assumed): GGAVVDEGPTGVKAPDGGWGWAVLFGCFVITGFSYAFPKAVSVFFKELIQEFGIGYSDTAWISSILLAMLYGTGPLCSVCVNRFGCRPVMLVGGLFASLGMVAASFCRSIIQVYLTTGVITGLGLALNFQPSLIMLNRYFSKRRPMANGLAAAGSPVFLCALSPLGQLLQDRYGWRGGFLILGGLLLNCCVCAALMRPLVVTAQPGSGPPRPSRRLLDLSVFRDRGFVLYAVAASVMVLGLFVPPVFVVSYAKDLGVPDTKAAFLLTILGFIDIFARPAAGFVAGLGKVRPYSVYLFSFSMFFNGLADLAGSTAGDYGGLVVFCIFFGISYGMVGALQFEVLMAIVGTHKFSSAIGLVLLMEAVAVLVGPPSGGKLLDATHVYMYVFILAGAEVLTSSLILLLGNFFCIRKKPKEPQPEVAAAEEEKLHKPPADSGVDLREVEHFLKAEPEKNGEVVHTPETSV
Protocol: (§1) The compounds' efficacy in both assays was determined by calculating their IC50 value (the concentration of test compound that inhibited 50% of biological activity).
(§2) MCT4 is predominantly involved in cellular efflux of lactate from the cell, preventing intracellular acidification. In the MCT4 in vitro transport system described here it was possible to drive influx of lactate in the cells and test the compounds efficacy in preventing this process. MCT1 is involved in influx-efflux of lactate, and because it is closely related to MCT4, it is a major selectivity target for MCT4 inhibitor. The MCT1 in vitro transport system described here measured the influx of lactate in the cells and ability of test compounds in preventing this process.
(§3) Tyrode's Solution pH7.4 (NaCl 119 mM; KC1 5 mM; HEPES pH7.4 25 mM; CaCl2 2 mM; MgCl2 2 mM; Glucose 6 g/L)
(§4) The following assay was performed to assess MCT4 (MDA-MB-231 cell line) or MCT1 (BT-20 cell line) activity by monitoring the intracellular pH change that accompanies lactate/proton transport using the pH-sensitive fluorescent dye BCECF-AM.
(§5) Compound preparation: The compounds were serially diluted in 100% DMSO 1:3 for 8 pts and transferred (500 nl) to a 96-well plate by Echo.
(§6) Cell preparation: Cells were briefly rinsed with 10 ml of PBS solution to remove all traces of serum, trypsinized (0.05% Trypsin-EDTA) at 25° C. for 2-3 minutes and washed twice with Tyrode's solution. The cell viability and concentration were determined using Vi-Cell. Cells were resuspended in Tyrode's solution.
(§7) Cells were loaded with the pH sensitive dye BCECF-AM (5 uM final concentration from the 30 mM DMSO stock solution) at 37° C. for 30 minutes before being washed twice to remove excess dye and resuspended to 2 million/ml cells in Tyrode's solution. Cells were seeded into a 96-well plate (200,000 cells/well) directly onto the test compound or a reference compound for 10 minutes at 37° C. Following incubation with test compounds, 25 ul of 30 mM Sodium-L-lactate was added. This addition was performed on the FlexStation III as a part of a real-time kinetic protocol. The ratio of cellular fluorescence at 535 nm after excitation at 490 nm/440 nm was measured over time for baseline (pre-lactate addition) and post-lactate addition for 60 sec with or without compounds present. Inhibitory concentration response curves were generated for compounds and their IC50 values calculated.

MCT1 = target: T2, MCT1 (Homo sapiens, UniProt P53985); assay: MCT1 transport assay (L-lactate influx, BCECF-AM intracellular pH); assay type: cell-based; details: BT-20 cells expressing exclusively MCT1
T2 construct: BT-20 cells—a triple negative human breast cancer cell line expressing exclusively MCT1 (confirmed by Western blotting); host or cells: BT-20
T2 sequence (P53985 1-500): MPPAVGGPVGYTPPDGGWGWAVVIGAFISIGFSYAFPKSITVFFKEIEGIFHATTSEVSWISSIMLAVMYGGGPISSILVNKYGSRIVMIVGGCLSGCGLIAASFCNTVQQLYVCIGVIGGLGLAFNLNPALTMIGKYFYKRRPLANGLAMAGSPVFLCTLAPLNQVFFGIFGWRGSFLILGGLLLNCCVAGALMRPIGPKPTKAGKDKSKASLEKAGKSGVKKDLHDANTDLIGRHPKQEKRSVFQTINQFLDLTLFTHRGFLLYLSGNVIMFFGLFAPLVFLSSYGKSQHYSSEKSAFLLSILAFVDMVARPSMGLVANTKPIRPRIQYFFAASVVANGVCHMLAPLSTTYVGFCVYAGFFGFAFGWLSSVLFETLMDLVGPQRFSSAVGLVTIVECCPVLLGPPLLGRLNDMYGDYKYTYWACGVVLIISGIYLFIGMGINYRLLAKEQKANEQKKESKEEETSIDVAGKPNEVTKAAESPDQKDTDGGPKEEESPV
T2 sequence (P35613 140-385 partner limits assumed): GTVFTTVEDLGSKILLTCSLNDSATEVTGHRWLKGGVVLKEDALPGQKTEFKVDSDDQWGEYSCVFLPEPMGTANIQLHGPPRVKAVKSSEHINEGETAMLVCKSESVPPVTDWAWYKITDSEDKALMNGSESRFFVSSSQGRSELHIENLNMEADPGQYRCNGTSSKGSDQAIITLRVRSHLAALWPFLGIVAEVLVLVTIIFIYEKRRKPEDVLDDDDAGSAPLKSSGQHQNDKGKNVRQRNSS
Text: The following in vitro MCT4 and MCT1 transport assays were used to measure the effect of the compounds on L-lactate influx into two different cell lines: • a) MDA-MB-231 cells—a triple negative human breast cancer cell line expressing exclusively MCT4 (confirmed by Western blotting) was used for the MCT4 transport assay, • b) BT-20 cells—a triple negative human breast cancer cell line expressing exclusively MCT1 (confirmed by Western blotting) was used for the
as §1, §2
BT-20 (ATCC); Media: EMEM+10% FBS+1% PS
as §3, §4, §5, §6, §7

| SMILES | IC50 (MCT4) [nM] | IC50 (MCT1) [nM] |
| --- | --- | --- |
| Cc1nc2nc(C)c(O[C@@H]3CCN(c4ccc(-c5ccc(C(=O)N6CC(N(C)C)C6)nn5)cc4)C3)c(C)n2n1 [Compound 15, (R)-(3-(dimethylamino)azetidin-1-yl)(6-(4-(3-((2,5,7-trimethyl-[1,2,4]triazolo[1,5-a]pyrimidin-6-yl)oxy)pyrrolidin-1-yl)phenyl)pyridazin-3-yl)methanone] | < 100 | > 1000 |
| Cc1nc2nc(C)c(O[C@@H]3CCN(c4ccc(-c5ccc(C(=O)N6CC(S(C)(=O)=O)C6)nn5)cc4)C3)c(C)n2n1 [Compound 16, (R)-(3-(methylsulfonyl)azetidin-1-yl)(6-(4-(3-((2,5,7-trimethyl-[1,2,4]triazolo[1,5-a]pyrimidin-6-yl)oxy)pyrrolidin-1-yl)phenyl)pyridazin-3-yl)methanone] | < 100 | > 1000 |
| Cc1cn2c(C)c(O[C@@H]3CCN(c4ccc(-c5ccc(CN6CCOCC6)nn5)cc4)C3)c(C)nc2n1 [Compound 2, (R)-4-((6-(4-(3-((2,5,7-trimethylimidazo[1,2-a]pyrimidin-6-yl)oxy)pyrrolidin-1-yl)phenyl)pyridazin-3-yl)methyl)morpholine] | 100 to 499 | > 1000 |
| Cc1nc2nc(C)c(O[C@@H]3CCN(c4ccc(-c5ccc(C(=O)N6CC7(COC7)C6)nn5)cc4)C3)c(C)n2n1 [Compound 13, (R)-(2-oxa-6-azaspiro[3.3]heptan-6-yl)(6-(4-(3-((2,5,7-trimethyl-[1,2,4]triazolo[1,5-a]pyrimidin-6-yl)oxy)pyrrolidin-1-yl)phenyl)pyridazin-3-yl)methanone] | < 100 | > 1000 |
| Cc1cc2nc(C)c(O[C@@H]3CCN(c4ccc(-c5ccc(C(=O)N6CCOCC6)nn5)cc4)C3)c(C)n2n1 [Compound 20, (R)-morpholino(6-(4-(3-((2,5,7-trimethylpyrazolo[1,5-a]pyrimidin-6-yl)oxy)pyrrolidin-1-yl)phenyl)pyridazin-3-yl)methanone] | < 100 | > 1000 |
| Cc1nc2nc(C)c(O[C@@H]3CCN(c4ccc(-c5ccc(CN6CC(N(C)C)C6)nn5)cc4)C3)c(C)n2n1 [Compound 9, (R)-N,N-dimethyl-1-((6-(4-(3-((2,5,7-trimethyl-[1,2,4]triazolo[1,5-a]pyrimidin-6-yl)oxy)pyrrolidin-1-yl)phenyl)pyridazin-3-yl)methyl)azetidin-3-amine] | < 100 | > 1000 |
| Cc1nc2nc(C)c(O[C@@H]3CCN(c4cnc(C56CCC(CN7CCOCC7)(CC5)CC6)nc4)C3)c(C)n2n1 [Compound 6, (R)-4-((4-(5-(3-((2,5,7-trimethyl-[1,2,4]triazolo[1,5-a]pyrimidin-6-yl)oxy)pyrrolidin-1-yl)pyrimidin-2-yl)bicyclo[2.2.2]octan-1-yl)methyl)morpholine] | < 100 | > 1000 |
| COC1CN(Cc2ccc(-c3ccc(N4CC[C@@H](Oc5c(C)nc6nc(C)nn6c5C)C4)cc3)nn2)C1 [Compound 8, (R)-6-((1-(4-(6-((3-methoxyazetidin-1-yl)methyl)pyridazin-3-yl)phenyl)pyrrolidin-3-yl)oxy)-2,5,7-trimethyl-[1,2,4]triazolo[1,5-a]pyrimidine] | < 100 | > 1000 |
| Cc1nc2nc(C)c(O[C@@H]3CCN(c4ccc([C@H]5CC[C@H](C(=O)N6CCOCC6)CC5)cc4)C3)c(C)n2n1 [Compound 35, morpholino((1R,4r)-4-(4-((R)-3-((2,5,7-trimethyl-[1,2,4]triazolo[1,5-a]pyrimidin-6-yl)oxy)pyrrolidin-1-yl)phenyl)cyclohexyl)methanone] | < 100 | > 1000 |
| COC1CN(CC23CC(c4ncc(N5CC[C@@H](Oc6c(C)nc7nc(C)nn7c6C)C5)cn4)(C2)C3)C1 [Compound 22, (R)-6-((1-(2-(3-((3-methoxyazetidin-1-yl)methyl)bicyclo[1.1.1]pentan-1-yl)pyrimidin-5-yl)pyrrolidin-3-yl)oxy)-2,5,7-trimethyl-[1,2,4]triazolo[1,5-a]pyrimidine] | < 100 | > 1000 |
| COC1CN(C(=O)C23CC(c4ncc(N5CC[C@@H](Oc6c(C)nc7nc(C)nn7c6C)C5)cn4)(C2)C3)C1 [Compound 25, (R)-(3-methoxyazetidin-1-yl)(3-(5-(3-((2,5,7-trimethyl-[1,2,4]triazolo[1,5-a]pyrimidin-6-yl)oxy)pyrrolidin-1-yl)pyrimidin-2-yl)bicyclo[1.1.1]pentan-1-yl)methanone] | 500 to 1000 | > 1000 |
| Cc1nc2nc(C)c(O[C@@H]3CCN(c4ccc([C@H]5CC[C@H](C(=O)N6CC7(COC7)C6)CC5)cc4)C3)c(C)n2n1 [Compound 33, (2-oxa-6-azaspiro[3.3]heptan-6-yl)((1R,4r)-4-(4-((R)-3-((2,5,7-trimethyl-[1,2,4]triazolo[1,5-a]pyrimidin-6-yl)oxy)pyrrolidin-1-yl)phenyl)cyclohexyl)methanone] | < 100 | > 1000 |
| Cc1nc2nc(C)c(O[C@@H]3CCN(c4ccc(-c5ccc(C(=O)N6CC(C(=O)N(C)C)C6)nn5)cc4)C3)c(C)n2n1 [Compound 18, (R)-N,N-dimethyl-1-(6-(4-(3-((2,5,7-trimethyl-[1,2,4]triazolo[1,5-a]pyrimidin-6-yl)oxy)pyrrolidin-1-yl)phenyl)pyridazine-3-carbonyl)azetidine-3-carboxamide] | < 100 | > 1000 |
| Cc1nc2nc(C)c(O[C@@H]3CCN(c4cnc(C56CC(CN7CC8(COC8)C7)(C5)C6)nc4)C3)c(C)n2n1 [Compound 21, (R)-6-((3-(5-(3-((2,5,7-trimethyl-[1,2,4]triazolo[1,5-a]pyrimidin-6-yl)oxy)pyrrolidin-1-yl)pyrimidin-2-yl)bicyclo[1.1.1]pentan-1-yl)methyl)-2-oxa-6-azaspiro[3.3]heptane] | 500 to 1000 | > 1000 |
